# Measured values: US9878977B2, “N-((3,4,5-trimethoxystyryl)aryl)cinnamamide compounds as potential anticancer agents and process for the preparation thereof” (COUNCIL OF SCIENTIFIC & INDUSTRIAL RESEARCH, priority 2014, dated 2018)
# Like-named read-outs stand apart in the source and are kept apart here.
# Columns and labels:
# Assay type in all cases: cell-based, Human
# Hela = experiment: SRB anti-proliferative assay, Hela; settings: read-out: GI50 Hela
# Procedure: (§1) The synthesized N-(3,4,5-trimethoxystyryl)aryl)cinnamamides were evaluated for their anti-proliferative activity in selected human cancer cell lines of breast cancer (MCF-7), prostate cancer (DU-145), lung cancer (Hop-62), cervical cancer (Hela), leukemia (K562), ovarian cancer (SK-OV-3), colon cancer (Colo-205), pancreatic (MAIPA-CA-2) by using sulforhodamine B (SRB) method (Vichai, V.; Kirtikara, K. Nat. Protoc. 2006, 1, 1112). […] CA-4 was used as the reference compound.
# DU-145 = experiment: SRB anti-proliferative assay, DU-145
# Procedure: as §1
# K562 = experiment: SRB anti-proliferative assay, K562
# Procedure: as §1
# Hop-62 = experiment: SRB anti-proliferative assay, Hop-62
# Procedure: as §1
# SK-OV-3 = experiment: SRB anti-proliferative assay, SK-OV-3
# Procedure: as §1
# Colo-205 = experiment: SRB anti-proliferative assay, Colo-205
# Procedure: as §1
# MCF-7 = experiment: SRB anti-proliferative assay, MCF-7
# Procedure: as §1
# MAIPA-CA-2 = experiment: SRB anti-proliferative assay, MAIPA-CA-2; settings: read-out: GI50 MAIPA-CA-2
# Procedure: as §1
# [1] = Homo sapiens, DU-145, read-out: GI50 DU-145
# [2] = Homo sapiens, K562, read-out: GI50 K562
# [3] = Homo sapiens, HOP-62, read-out: GI50 Hop-62
# [4] = Homo sapiens, SK-OV-3, read-out: GI50 SK-OV-3
# [5] = Homo sapiens, COLO 205, read-out: GI50 Colo-205
# [6] = Homo sapiens, MCF7, read-out: GI50 MCF-7
# [7] = Human cervical cancer, concentration of drug causing 50% inhibition of cell growth
# [8] = DU-145, Human prostate cancer, concentration of drug causing 50% inhibition of cell growth, read-out: GI50 DU-145
# [9] = K562, Human leukemia, concentration of drug causing 50% inhibition of cell growth, read-out: GI50 K562
# [10] = HOP-62, Human lung cancer, concentration of drug causing 50% inhibition of cell growth, read-out: GI50 Hop-62
# [11] = SK-OV-3, Human ovarian cancer, concentration of drug causing 50% inhibition of cell growth, read-out: GI50 SK-OV-3
# [12] = COLO 205, Human colon cancer, concentration of drug causing 50% inhibition of cell growth, read-out: GI50 Colo-205
# [13] = MCF7, Human breast cancer, concentration of drug causing 50% inhibition of cell growth, read-out: GI50 MCF-7
# [14] = Human pancreatic, concentration of drug causing 50% inhibition of cell growth
SMILES,GI50 (Hela; Homo sapiens),GI50 (DU-145; [1]),GI50 (K562; [2]),GI50 (Hop-62; [3]),GI50 (SK-OV-3; [4]),GI50 (Colo-205; [5]),GI50 (MCF-7; [6]),GI50 (MAIPA-CA-2; Homo sapiens),GI50 (Hela; [7]),GI50 (DU-145; [8]),GI50 (K562; [9]),GI50 (Hop-62; [10]),GI50 (SK-OV-3; [11]),GI50 (Colo-205; [12]),GI50 (MCF-7; [13]),GI50 (MAIPA-CA-2; [14])
"COc1ccc(C=Cc2cc(OC)c(OC)c(OC)c2)c(NC(=O)/C=C/c2ccc(F)c(F)c2)c1O [Compound 20aa, (E)-3-(3,4-Difluorophenyl)-N-(2-hydroxy-3-methoxy-6-(3,4,5-trimethoxystyryl)phenyl)acrylamide]",29.2 µM,0.045 µM,0.099 µM,43.6 µM,29.8 µM,74.9 µM,0.031 µM,74 µM,–,–,–,–,–,–,–,–
"COc1ccc(C=Cc2cc(OC)c(OC)c(OC)c2)c(NC(=O)/C=C/c2cc(OC)c(OC)c(OC)c2)c1O [Compound 20ab, (E)-N-(2-Hydroxy-3-methoxy-6-(3,4,5-trimethoxystyryl)phenyl)-3-(3,4,5-trimethoxyphenyl)acrylamide]",14.9 µM,0.095 µM,28 µM,24.8 µM,20.9 µM,76 µM,0.079 µM,64.5 µM,–,–,–,–,–,–,–,–
"COc1cccc(/C=C/C(=O)Nc2c(C=Cc3cc(OC)c(OC)c(OC)c3)ccc(OC)c2O)c1 [Compound 20f, (E)-N-(2-Hydroxy-3-methoxy-6-(3,4,5-trimethoxystyryl)phenyl)-3-(3-methoxyphenyl)acrylamide]",–,–,–,–,–,–,–,–,18.1 µM,> 100 µM,0.098 µM,65.4 µM,17.6 µM,> 100 µM,59.5 µM,93.9 µM
"COc1ccc(C=Cc2cc(OC)c(OC)c(OC)c2)c(NC(=O)/C=C/c2cccc(O)c2)c1O [Compound 20g, (E)-N-(2-Hydroxy-3-methoxy-6-(3,4,5-trimethoxystyryl)phenyl)-3-(3-hydroxyphenyl)acrylamide]",0.0949 µM,0.07 µM,0.094 µM,0.082 µM,0.097 µM,13.4 µM,0.063 µM,0.098 µM,–,–,–,–,–,–,–,–
"C#CCOc1cccc(/C=C/C(=O)Nc2c(C=Cc3cc(OC)c(OC)c(OC)c3)ccc(OC)c2O)c1 [Compound 20h, (E)-N-(2-Hydroxy-3-methoxy-6-(3,4,5-trimethoxystyryl)phenyl)-3-(3-(prop-2-ynyloxy)phenyl)acrylamide]",> 100 µM,96.4 µM,> 100 µM,> 100 µM,> 100 µM,> 100 µM,11.6 µM,> 100 µM,–,–,–,–,–,–,–,–
"C=CCOc1cccc(/C=C/C(=O)Nc2c(C=Cc3cc(OC)c(OC)c(OC)c3)ccc(OC)c2O)c1 [Compound 20i, (E)-3-(3-(Allyloxy)phenyl)-N-(2-hydroxy-3-methoxy-6-(3,4,5-trimethoxystyryl)phenyl)acrylamide]",–,–,–,–,–,–,–,–,0.0787 µM,0.085 µM,0.091 µM,0.06 µM,0.082 µM,18 µM,0.083 µM,0.098 µM
"COc1ccc(C=Cc2cc(OC)c(OC)c(OC)c2)c(NC(=O)/C=C/c2ccc(C(F)(F)F)cc2)c1O [Compound 20n, (E)-N-(2-Hydroxy-3-methoxy-6-(3,4,5-trimethoxystyryl)phenyl)-3-(4-(trifluoromethyl)phenyl)acrylamide]",> 100 µM,> 100 µM,58 µM,> 100 µM,> 100 µM,> 100 µM,83.7 µM,> 100 µM,–,–,–,–,–,–,–,–
"COc1ccc(C=Cc2cc(OC)c(OC)c(OC)c2)c(NC(=O)/C=C/c2ccc([N+](=O)[O-])cc2)c1O [Compound 20o, (E)-N-(2-Hydroxy-3-methoxy-6-(3,4,5-trimethoxystyryl)phenyl)-3-(4-nitrophenyl)acrylamide]",15.7 µM,0.085 µM,0.097 µM,0.061 µM,17 µM,10.3 µM,0.072 µM,40.8 µM,–,–,–,–,–,–,–,–
"COc1ccc(C=Cc2cc(OC)c(OC)c(OC)c2)c(NC(=O)/C=C/c2ccc(Cl)cc2)c1O [Compound 20q, (E)-3-(4-Chlorophenyl)-N-(2-hydroxy-3-methoxy-6-(3,4,5-trimethoxystyryl)phenyl)acrylamide]",–,–,–,–,–,–,–,–,38.8 µM,54.1 µM,24.9 µM,79.4 µM,62.6 µM,> 100 µM,55.5 µM,> 100 µM
"COc1ccc(C=Cc2cc(OC)c(OC)c(OC)c2)c(NC(=O)/C=C/c2ccc(F)cc2)c1O [Compound 20r, (E)-3-(4-Fluorophenyl)-N-(2-hydroxy-3-methoxy-6-(3,4,5-trimethoxystyryl)phenyl)acrylamide]",–,–,–,–,–,–,–,–,24 µM,0.083 µM,23.5 µM,43 µM,47.5 µM,67.6 µM,0.066 µM,78.1 µM
"COc1ccc(/C=C/C(=O)Nc2c(C=Cc3cc(OC)c(OC)c(OC)c3)ccc(OC)c2O)cc1OC [Compound 20s, (E)-3-(3,4-Dimethoxyphenyl)-N-(2-hydroxy-3-methoxy-6-(3,4,5-trimethoxystyryl)phenyl)acrylamide]",–,–,–,–,–,–,–,–,7.5 µM,0.06 µM,0.094 µM,0.09 µM,0.099 µM,0.099 µM,0.056 µM,29.9 µM
"COc1cc(/C=C/C(=O)Nc2c(C=Cc3cc(OC)c(OC)c(OC)c3)ccc(OC)c2O)ccc1O [Compound 20t, (E)-N-(2-Hydroxy-3-methoxy-6-(3,4,5-trimethoxystyryl)phenyl)-3-(4-hydroxy-3-methoxyphenyl)acrylamide]",–,–,–,–,–,–,–,–,0.09 µM,0.072 µM,0.093 µM,0.079 µM,0.096 µM,0.098 µM,0.06 µM,0.098 µM
"COc1cc(/C=C/C(=O)Nc2c(C=Cc3cc(OC)c(OC)c(OC)c3)ccc(OC)c2O)ccc1[N+](=O)[O-] [Compound 20u, (E)-N-(2-Hydroxy-3-methoxy-6-(3,4,5-trimethoxystyryl)phenyl)-3-(3-methoxy-4-nitrophenyl)acrylamide]",–,–,–,–,–,–,–,–,0.099 µM,0.075 µM,0.096 µM,0.084 µM,7.9 µM,0.096 µM,0.095 µM,23.5 µM
"COc1cc(/C=C/C(=O)Nc2c(C=Cc3cc(OC)c(OC)c(OC)c3)ccc(OC)c2O)ccc1N [Compound 20v, (E)-3-(4-Amino-3-methoxyphenyl)-N-(2-hydroxy-3-methoxy-6-(3,4,5-trimethoxystyryl)phenyl)acrylamide]",–,–,–,–,–,–,–,–,0.09 µM,0.085 µM,0.082 µM,0.035 µM,0.094 µM,0.086 µM,0.074 µM,0.097 µM
"COc1ccc(/C=C/C(=O)Nc2c(C=Cc3cc(OC)c(OC)c(OC)c3)ccc(OC)c2O)cc1O [Compound 20x, (E)-N-(2-hydroxy-3-methoxy-6-(3,4,5-trimethoxystyryl)phenyl)-3-(3-hydroxy-4-methoxyphenyl)acrylamide]",–,–,–,–,–,–,–,–,15.9 µM,0.117 µM,23.7 µM,17.1 µM,1.8 µM,> 100 µM,0.095 µM,46.3 µM
"COc1ccc(/C=C/C(=O)Nc2c(C=Cc3cc(OC)c(OC)c(OC)c3)ccc(OC)c2O)cc1[N+](=O)[O-] [Compound 20y, (E)-N-(2-Hydroxy-3-methoxy-6-(3,4,5-trimethoxystyryl)phenyl)-3-(4-methoxy-3-nitrophenyl)acrylamide]",–,–,–,–,–,–,–,–,49.2 µM,64.7 µM,46.8 µM,71.3 µM,52.6 µM,> 100 µM,19.4 µM,> 100 µM
